The target of assay [1] is T1, KMT9 (Homo sapiens, UniProt Q9Y5N5).
T1 sequence (Q9Y5N5 1-214): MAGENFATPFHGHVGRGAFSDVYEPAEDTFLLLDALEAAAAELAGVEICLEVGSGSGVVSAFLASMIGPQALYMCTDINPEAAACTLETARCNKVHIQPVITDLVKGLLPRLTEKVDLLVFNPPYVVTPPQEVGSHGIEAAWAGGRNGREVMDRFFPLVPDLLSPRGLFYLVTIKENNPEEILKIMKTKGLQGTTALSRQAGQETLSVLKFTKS
T1 sequence (Q9UI30 1-120 isoform Q9UI30-2 partner): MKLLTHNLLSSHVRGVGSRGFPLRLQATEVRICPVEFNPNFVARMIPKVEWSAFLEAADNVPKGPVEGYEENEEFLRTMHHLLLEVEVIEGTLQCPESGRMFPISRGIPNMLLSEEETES
As to the kind of experiment: KMT9 methyltransferase inhibition assay, 3H-SAM scintillation (entries 1-154). The assay is classed as biochemical. The following applies: entries 1-154: 3H-SAM assay, 25 nM KMT9, 5 μM ETF1. In outline: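 Final 25 nM KMT9, 5 μM ETF1 (residues 140-275), 0.3 μM 3H-SAM plus 0.7 μM SAM in pH 8.5 BTP buffer, 2 h at 30° C. TCA-quenched, filter-washed, methylation counted by scintillation; % inhibition vs DMSO and no-enzyme controls, IC50 from four-parameter fit.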

For assay [2], the target named is T1, KMT9. Nature of the assay: Microscale thermophoresis (MST) KMT9 binding. Particulars: microscale thermophoresis, His-tag labelled KMT9 (20 nM); read-out: MST. In a few lines: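 His-tagged KMT9 (20 nM), RED-Tris-NTA labelled, titrated with varying compound concentrations in 25 mM HEPES pH 7.5, 100 mM NaCl, 1 mM DTT, 0.05% Tween. MST at 40% MST and 100% LED power, Nano-RED excitation; Kd binned A ≤10 nM, B 10–100, C 100–1000, D >1000 nM.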
For orientation: In MST a laser heats a spot of the sample, and binding alters the fluorescence response.

Assay [3] addresses T1, KMT9. Nature of the assay: KMT9 thermal shift assay (SyproOrange). The format is binding. The following applies: ΔTm; 500 µM compound, 2 μM KMT9, 5X SO; read-out: Thermal shift. In a few lines: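 Recombinant KMT9 was incubated with compound and SyproOrange at 25° C in 50 mM BTP pH 8.5, 1 mM MgCl2, 1 mM DTT. It was then heated from 20° C to 95° C at 1° C per 15 s with fluorescence read each step. Tm came from a Boltzmann sigmoidal fit; ΔTm relative to DMSO control, binned in 5 K ranges.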

As for `CNc1ncnc2c1ccn2[C@@H]1C[C@H](C#CCNCCc2ccccc2)[C@@H](O)[C@H]1O` [426 (297), (1R,2S,3R,5R)-3-[4-(methylamino)pyrrolo[2,3-d]pyrimidin-7-yl]-5-{3-[(2-phenylethyl)amino]prop-1-yn-1-yl}cyclopentane-1,2-diol], at KMT9 [1], the IC50 (as a rule, the concentration that inhibits the measured activity by half) was over 10000 nM. Also, the Kd on KMT9 [2] was over 1000 nM. Further, the ΔTm at 500 µM on KMT9 [3] was at most 10 °C.

The compound `CNc1ncnc2c1ccn2[C@@H]1C[C@H](CSCCCNCCc2ccccc2)[C@@H](O)[C@H]1O` [427 (299), (1R,2S,3R,5S)-3-(4-(methylamino)-7H-pyrrolo[2,3-d]pyrimidin-7-yl)-5-(((3-(phenethylamino)propyl)thio)methyl) cyclopentane-1,2-diol] returned an IC50 against KMT9 [1] of 1000 to 10000 nM. The Kd on KMT9 [2] was over 1000 nM. At KMT9 [3], the ΔTm at 500 µM is at most 10 °C.

Turning to `CNc1ncnc2c1ccn2[C@@H]1C[C@H](C[S+]([O-])CCCNCCc2ccccc2)[C@@H](O)[C@H]1O` (stereo partly drawn) [428 (300), (1R,2S,3R,5S)-3-(4-(Methylamino)-7H-pyrrolo[2,3-d]pyrimidin-7-yl)-5-(((3-(phenethylamino)propyl)sulfinyl)methyl) cyclopentane-1,2-diol], the half-maximal inhibitory concentration (IC50) against KMT9 [1] is over 10000 nM. The Kd on KMT9 [2] was over 1000 nM. For the same compound, the ΔTm at 500 µM at KMT9 [3] was at most 10 °C.

The compound `CNc1ncnc2c1ccn2[C@@H]1C[C@H](CS(=O)(=O)CCCNCCc2ccccc2)[C@@H](O)[C@H]1O` [429 (301), (1R,2S,3R,5S)-3-(4-(Methylamino)-7H-pyrrolo[2,3-d]pyrimidin-7-yl)-5-(((3-(phenethylamino)propyl)sulfonyl)methyl) cyclopentane-1,2-diol] registered a half-inhibitory concentration (IC50) at KMT9 [1] of over 10000 nM. Besides, the Kd on KMT9 [2] is over 1000 nM. The ΔTm at 500 µM on KMT9 [3] was at most 10 °C.

With `CNc1ncnc2c1ccn2[C@@H]1C[C@H](CSCCN)[C@@H](O)[C@H]1O` [430 (302), (1S,2R,3S,5R)-3-(((2-Aminoethyl)thio)methyl)-5-(4-(methylamino)-7H-pyrrolo[2,3-d]pyrimidin-7-yl) cyclopentane-1,2-diol], at KMT9 [1], the IC50 was over 10000 nM. The Kd on KMT9 [2] is over 1000 nM. In addition, the ΔTm at 500 µM on KMT9 [3] was at most 10 °C.

`CNc1ncnc2c1ccn2[C@@H]1C[C@H](CSCCNCCc2ccccc2)[C@@H](O)[C@H]1O` [431 (303), (1R,2S,3R,5S)-3-(4-(Methylamino)-7H-pyrrolo[2,3-d]pyrimidin-7-yl)-5-(((2-(phenethylamino)ethyl)thio)methyl) cyclopentane-1,2-diol] came in with an IC50 on KMT9 [1] of over 10000 nM. The Kd on KMT9 [2] is over 1000 nM. At KMT9 [3], the ΔTm at 500 µM was at most 10 °C.

Take `CNc1ncnc2c1ccn2[C@@H]1C[C@H](C[S+]([O-])CCNCCc2ccccc2)[C@@H](O)[C@H]1O` (stereo partly drawn) [432 (304), (1R,2S,3R,5S)-3-(4-(Methylamino)-7H-pyrrolo[2,3-d]pyrimidin-7-yl)-5-(((2-(phenethylamino)ethyl)sulfinyl)methyl) cyclopentane-1,2-diol]: the 50% inhibitory concentration (IC50) against KMT9 [1] is over 10000 nM. Further, the Kd at KMT9 [2] was over 1000 nM. For the same compound, the ΔTm at 500 µM on KMT9 [3] is at most 10 °C.

Compound `CNc1ncnc2c1ccn2[C@@H]1C[C@H](CS(=O)(=O)CCNCCc2ccccc2)[C@@H](O)[C@H]1O` [433 (305), (1R,2S,3R,5S)-3-(4-(Methylamino)-7H-pyrrolo[2,3-d]pyrimidin-7-yl)-5-(((2-(phenethylamino)ethyl)sulfonyl)methyl) cyclopentane-1,2-diol] yielded an IC50 at KMT9 [1] of over 10000 nM. For the same compound, the Kd on KMT9 [2] is over 1000 nM. Also, at KMT9 [3], the ΔTm at 500 µM was at most 10 °C.

On to `CNc1ncnc2c1ccn2[C@@H]1C[C@H](CNC[C@H]2CCCNC2)[C@@H](O)[C@H]1O` [436 (308), (1R,2S,3R,5R)-3-[4-(Methylamino)pyrrolo[2,3-d]pyrimidin-7-yl]-5-({[(3S)-piperidin-3-ylmethyl]amino}methyl) cyclopentane-1,2-diol], for which the concentration for half-maximal inhibition (IC50) at KMT9 [1] was over 10000 nM. Further, the Kd at KMT9 [2] was over 1000 nM. In addition, at KMT9 [3], the ΔTm at 500 µM is at most 10 °C.

The compound `CNc1ncnc2c1ccn2[C@@H]1C[C@H](CN(CCCN)c2cncs2)[C@@H](O)[C@H]1O` [437 (309), (1S,2R,3R,5R)-3-{[(3-Aminopropyl)(1,3-thiazol-5-yl)amino]methyl}-5-[4-(methylamino)pyrrolo[2,3-d]pyrimidin-7-yl]cyclopentane-1,2-diol] had an IC50 on KMT9 [1] of 1000 to 10000 nM. On KMT9 [2], the Kd is over 1000 nM. The ΔTm at 500 µM at KMT9 [3] is at most 10 °C.

Take `CNc1ncnc2c1ccn2[C@@H]1C[C@H](CN(C[C@H]2CCCNC2)c2cncs2)[C@@H](O)[C@H]1O` [438 (310), (1R,2S,3R,5R)-3-[4-(Methylamino)pyrrolo[2,3-d]pyrimidin-7-yl]-5-({[(3S)-piperidin-3-ylmethyl](1,3-thiazol-5-yl)amino}methyl) cyclopentane-1,2-diol]: on KMT9 [1], the half-maximal inhibitory concentration (IC50) was over 10000 nM. Moreover, on KMT9 [2], the Kd is over 1000 nM. Moreover, at KMT9 [3], the ΔTm at 500 µM is at most 10 °C.

The compound `CNc1ncnc2c1ccn2[C@@H]1C[C@H](CN(CCCNCCc2ccccc2)c2cncs2)[C@@H](O)[C@H]1O` [439 (311), (1R,2S,3R,5R)-3-(4-(Methylamino)-7H-pyrrolo[2,3-d]pyrimidin-7-yl)-5-(((3-(phenethylamino)propyl)(thiazol-5-yl)amino)methyl) cyclopentane-1,2-diol] gave an IC50 against KMT9 [1] of 1000 to 10000 nM. Also, the Kd on KMT9 [2] was over 1000 nM. Further, the ΔTm at 500 µM at KMT9 [3] was at most 10 °C.

With `CNc1ncnc2c1ccn2[C@@H]1C[C@H](CN(CCCNCCc2ccccc2)c2ccccc2)[C@@H](O)[C@H]1O` [440 (312), (1R,2S,3R,5R)-3-(4-(Methylamino)-7H-pyrrolo[2,3-d]pyrimidin-7-yl)-5-(((3-(phenethylamino)propyl)(phenyl)amino)methyl)cyclopentane-12-diol], at KMT9 [1], the concentration for half-maximal inhibition (IC50) is over 10000 nM. Also, the Kd on KMT9 [2] is over 1000 nM. Besides, the ΔTm at 500 µM at KMT9 [3] is at most 10 °C.

Compound `CNc1ncnc2c1ccn2[C@@H]1C[C@H](CN(CCCNCCc2ccccc2)c2cnn(C)c2)[C@@H](O)[C@H]1O` [441 (313), (1S,2R,3R,5R)-3-(((1-Methyl-1H-pyrazol-4-yl)(3-(phenethylamino)propyl)amino)methyl)-5-(4-(methylamino)-7H-pyrrolo[2,3-d]pyrimidin-7-yl) cyclopentane-1,2-diol] yielded a concentration for half-maximal inhibition (IC50) on KMT9 [1] of over 10000 nM. On KMT9 [2], the Kd is over 1000 nM. Besides, the ΔTm at 500 µM on KMT9 [3] was at most 10 °C.

`CNc1ncnc2c1ccn2[C@@H]1C[C@H](CN(CCCNCCc2ccccc2)c2cn[nH]c2)[C@@H](O)[C@H]1O` [442 (314), (1R,2S,3R,5R)-3-(4-(Methylamino)-7H-pyrrolo[2,3-d]pyrimidin-7-yl)-5-(((3-(phenethylamino)propyl)(1H-pyrazol-4-yl)amino)methyl) cyclopentane-1,2-diol] displayed an IC50 against KMT9 [1] of 1000 to 10000 nM. Further, the Kd at KMT9 [2] was 100 to 1000 nM. For the same compound, the ΔTm at 500 µM on KMT9 [3] lay in the range of 10 to 15 °C.

On KMT9 [1], `CNc1ncnc2c1ccn2[C@@H]1C[C@H](CN(CCCNCCc2ccccc2)c2ccn(C)n2)[C@@H](O)[C@H]1O` [443 (315), (1R,2S,3R,5R)-3-[4-(Methylamino)pyrrolo[2,3-d]pyrimidin-7-yl]-5-{[(1-methylpyrazol-3-yl)({3-[(2-phenylethyl)amino]propyl})amino]methyl}cyclopentane-1,2-diol] came in with a concentration for half-maximal inhibition (IC50) of over 10000 nM. The Kd at KMT9 [2] is over 1000 nM. Also, the ΔTm at 500 µM on KMT9 [3] is at most 10 °C.

As for `CNc1ncnc2c1ccn2[C@@H]1C[C@H](CN(CCCNCCc2ccccc2)c2cc[nH]n2)[C@@H](O)[C@H]1O` [444 (316)], the IC50 against KMT9 [1] fell in the range of 1000 to 10000 nM. Moreover, on KMT9 [2], the Kd is over 1000 nM. The ΔTm at 500 µM at KMT9 [3] was at most 10 °C.
